Converted amounts (≈) assume the structure as drawn.
Tests used:
Pseudomonas aeruginosa [1] = experiment: Antibacterial activity against blaVIM-2-positive Pseudomonas aeruginosa by CLSI Etest method; type: functional
Pseudomonas aeruginosa [2] = experiment: Antibacterial activity against blaVIM-2-positive Pseudomonas aeruginosa by CLSI broth microdilution method; type: functional

Row | MIC (Pseudomonas aeruginosa [1]) | SMILES | MIC (Pseudomonas aeruginosa [2])
1 | ≥ 128 mg/L | C[C@@H](O)[C@H]1C(=O)N2C(C(=O)O)=C(SCCNC=N)C[C@H]12 [IMIPENEM ANHYDROUS] | –
2 | – | C[C@@H](O)[C@H]1C(=O)N2C(C(=O)O)=C(S[C@@H]3CN[C@H](C(=O)N(C)C)C3)[C@H](C)[C@H]12 [MEROPENEM] | 32 mg/L (≈ 83.4 µM)

— ChEMBL document CHEMBL1671648, “Molecular epidemiology of outbreak-related pseudomonas aeruginosa strains carrying the novel variant blaVIM-17 metallo-beta-lactamase gene” (2009)
